According to publication PMC3667592 (Journal of medicinal chemistry, 2013):
Marks after values point to notes of the source that are not given here.

Tests used:
[1] = Ligand binding, UV-difference titration; conditions: binding to N,N′-Ac2-L-Lys-D-Ala-D-Ala (3)
[2] = reprogrammed precursor terminus D-Ala-D-Lac; cited from earlier work
[3] = binding to N,N′-Ac2-L-Lys-D-Ala-D-Ala (3), ref 8a; cited from earlier work
[4] = system: VanA and VanB VRE; conditions: cited from earlier work

Row | Structure (SMILES) | Association constant for 3, Ka [1] | Fold decrease in antibiotic binding affinity (D-Ala-D-Lac vs D-Ala-D-Ala) [2] [fold] | Association constant for 3, Ka (value in parentheses) [3] | Fold drop in antimicrobial activity against resistant strains [4] [fold]
1 | CN[C@H](CC(C)C)C(=O)N[C@H]1C(=O)N[C@@H](CC(N)=O)C(=O)N[C@H]2C(=O)N[C@H]3C(=O)N[C@H](C(=O)N[C@H](C(=O)O)c4cc(O)cc(O)c4-c4cc3ccc4O)[C@H](O)c3ccc(c(Cl)c3)Oc3cc2cc(c3O)Oc2ccc(cc2Cl)[C@H]1O [Vancomycin Aglycon (2), Vancomycin Aglycon] | 1.4 M^−1 (× 10^5) |  |  | 
2 | CN[C@H](CC(C)C)C(=O)N[C@H]1C(=O)N[C@@H](CC(N)=O)C(=O)N[C@H]2C(=O)N[C@H]3C(=O)N[C@H](C(=O)N[C@H](C(=O)O)c4cc(O)cc(O)c4-c4cc3ccc4O)[C@H](O)c3ccc(c(Cl)c3)Oc3cc2cc(c3O[C@@H]2O[C@H](CO)[C@@H](O)[C@H](O)[C@H]2O[C@H]2C[C@](C)(N)[C@H](O)[C@H](C)O2)Oc2ccc(cc2Cl)[C@H]1O [Vancomycin (1), Vancomycin] | 1.8 M^−1 (× 10^5) | 1000 | 2.3–3.9 M^−1 (× 10^5) | 1000
